Here are results for 56 compounds from ChEMBL document CHEMBL4616601, “Meeting organometallic chemistry with drug discovery: CH activation enabled discovery of a new ring system of 12H-Indazolo[2,1-a]cinnolin-12-ones with anti-proliferation activity” (Bioorg Med Chem Lett, 2020).

The subject of assay [1] is PC-3. Put plainly: Antiproliferative activity against human PC3 cells assessed as inhibition of cell viability at 0.5 to 5 uM after 72 hrs by CCK8 assay. The class given is functional, cell-based. A general note: Formazan colour is commonly taken as a measure of viable cells.
The test system of another assay is PANC-1. The assay can be described thus: Antiproliferative activity against human PANC1 cells assessed as reduction in cell viability after 72 hrs. The class given is functional, cell-based. Conditions: PANC-1, 72 h.
The subject of assay [2] is PC-3. Put plainly: Antiproliferative activity against human PC3 cells at 0.5 uM assessed as inhibition of cell viability after 72 hrs by CCK-8 assay relative to control. It is filed as functional. Conditions: PC-3, 72 h.
Assay [3] relates to PC-3. The assay can be described thus: Antiproliferative activity against human PC3 cells assessed as reduction in cell viability after 72 hrs by CCK8 assay. It is filed as functional, cell-based. Conditions: PC-3, 72 h.

The structures appear in SMILES notation. Activity calls are given as the source filed them. No rule for the calls is given here. Some results are limits rather than exact numbers.

Turning to `O=C1CCc2c1c1c3c(ccc1n1c(=O)c4ccccc4n21)OCO3`, in the assay with PC-3 [1], the result was Active.
Turning to `COc1cc(OC)c2c3c(n4c5ccccc5c(=O)n4c2c1)CCC3=O`, the result with PC-3 [1] was Active.
The same measure, in the same setting: to `CCOC(=O)c1c(-c2ccccc2)n2c3ccccc3c(=O)n2c2ccc(Br)cc12` belongs “Active”; to `O=C1CCCc2c1c1ccccc1n1c(=O)c3ccccc3n21`, “Active”; to `O=C1CCc2c1c1cc(I)ccc1n1c(=O)c3ccccc3n21`, “Active”.
On the same count and under the same terms, to `O=C1NCCc2c1c1ccccc1n1c(=O)c3ccccc3n21` belongs “Active”; to `O=C1CCc2c1c1cc(Br)ccc1n1c(=O)c3ccccc3n21`, “Active”.
Consider `CCOC(=O)c1c(-c2ccccc2)n2c3ccccc3c(=O)n2c2ccc3c(c12)OCO3`, for which the concentration for half-maximal inhibition (IC50) with PANC-1 is above 50000 nM; in the assay with PC-3 [3], 5820 nM. Moreover, the inhibition at 0.5 µM in the assay with PC-3 [2] was determined as 39.5%. For the same compound, the outcome with PC-3 [1] was Active.
Consider `CCOC(=O)c1c(C)n2c3ccccc3c(=O)n2c2ccc(Cl)cc12`, for which the result in the assay with PC-3 [1] was Active.
Regarding `COC(=O)c1c(C)n2c3ccccc3c(=O)n2c2cc3ccccc3cc12`, the outcome in the assay on PC-3 [1] was Active.
The same measure, in the same setting: the entry for `CCOC(=O)c1c(-c2cccc(OC)c2)n2c3ccccc3c(=O)n2c2ccccc12` is “Active”; for `Cc1c(C(=O)OCCO)c2ccccc2n2c(=O)c3ccccc3n12` it is “inactive”.
Still for that read-out and setting: the entry for `CCOC(=O)c1c(C)n2c3ccccc3c(=O)n2c2ccc(I)cc12` is “Active”; for `COC(=O)c1c(C)n2c3ccccc3c(=O)n2c2cc(OC)c(OC)c(OC)c12` it is “Active”.
As to `O=C(OCCO)c1c(-c2ccccc2)n2c3ccccc3c(=O)n2c2ccccc12`, the outcome in the assay with PC-3 [1] was inactive.
For `CCOC(=O)c1c(C)n2c3ccc(OC)cc3c(=O)n2c2ccccc12`, the values for the IC50 with PANC-1 and in the assay with PC-3 [3] were 506 nM and 475 nM, respectively. Also, the outcome in the assay on PC-3 [1] was Active.
Take `COC(=O)c1c(C2CC2)n2c3ccccc3c(=O)n2c2ccccc12`: the result with PC-3 [1] was inactive.
Consider `CCOC(=O)c1c(-c2ccccc2)n2c3ccccc3c(=O)n2c2ccc(-c3ccccc3)cc12`, for which the result with PC-3 [1] was Active.
For the compound `CCOC(=O)c1c(-c2ccccc2)n2c3ccccc3c(=O)n2c2ccc(Cl)cc12`, the 50% inhibitory concentration (IC50) with PANC-1 and with PC-3 [3] was above 50000 nM each time. Further, the result in the assay with PC-3 [1] was Active.
Turning to `CCOC(=O)c1c(-c2ccccc2)n2c3ccccc3c(=O)n2c2ccc(C#N)cc12`, in the assay on PC-3 [1], the outcome was Active.
`COc1ccc2c(c1)c1c(n3c4ccccc4c(=O)n23)CCCC1=O`: the outcome in the assay with PC-3 [1] was Active.
On the same count and under the same terms, the entry for `COC(=O)c1c(C)n2c3ccccc3c(=O)n2c2ccc(OC(F)(F)F)cc12` is “Active”; for `CCOC(=O)c1c(-c2ccco2)n2c3ccccc3c(=O)n2c2ccccc12` it is “Active”; for `COc1cccc2c3c(n4c5ccccc5c(=O)n4c12)CCC3=O` it is “Active”.
In the case of `CCOC(=O)c1c(-c2ccccc2)n2c3ccccc3c(=O)n2c2ccc(N3CCOCC3)cc12`, the half-maximal inhibitory concentration (IC50) with PANC-1 came out at 13800 nM; with PC-3 [3], 7490 nM. Also, in the assay with PC-3 [1], the result was Active.
`CCOC(=O)c1c(C)n2c3ccccc3c(=O)n2c2ccc(C)cc12`: in the assay on PC-3 [1], the outcome was Active.
The same measure, in the same setting: the entry for `CCOC(=O)c1c(-c2ccccc2)n2c3ccc(F)cc3c(=O)n2c2ccccc12` is “Active”.
`COC(=O)c1c(C)n2c3ccccc3c(=O)n2c2ccccc12`: the IC50 in the assay with PANC-1 worked out at 551 nM; in the assay on PC-3 [3], 1010 nM. Further, the outcome with PC-3 [1] was Active.
As to `O=C1CCc2c1c1ccccc1n1c(=O)c3ccccc3n21`, the result in the assay with PC-3 [1] was Active.
In the case of `COc1ccc2c(c1)c1c(n3c4ccccc4c(=O)n23)CCC1=O`, the result in the assay on PC-3 [1] was Active.
With `CCOC(=O)c1c(C)n2c3ccccc3c(=O)n2c2ccccc12`, in the assay on PC-3 [1], the outcome was Active.
For `CCOC(=O)c1c(-c2ccccc2)n2c3ccccc3c(=O)n2c2cc(OC)cc(OC)c12`, the result with PC-3 [1] was Active.
Still for that read-out and setting: to `CCOC(=O)c1c(-c2ccccc2)n2c3ccccc3c(=O)n2c2ccccc12` belongs “Active”; to `COc1cc2c(c(OC)c1OC)c1c(n3c4ccccc4c(=O)n23)CCC1=O`, “Active”.
In the case of `CCOC(=O)c1c(-c2ccc(I)cc2)n2c3ccccc3c(=O)n2c2ccccc12`, the results for the IC50 in the assay on PANC-1 and with PC-3 [3] were 6820 nM and 3980 nM, respectively. In the assay with PC-3 [1], the result was Active.
For the compound `COP(=O)(OC)c1c(C)n2c3ccccc3c(=O)n2c2ccccc12`, the result in the assay with PC-3 [1] was inactive.
The same measure, in the same setting: the entry for `CCOC(=O)c1c(-c2ccccc2)n2c3ccccc3c(=O)n2c2ccc(C)cc12` is “Active”.
The same measure, in the same setting: to `O=C1CCc2c1c1cc(Cl)ccc1n1c(=O)c3ccccc3n21` belongs “Active”.
Still for that read-out and setting: to `CCOC(=O)c1c(C)n2c3ccccc3c(=O)n2c2ccc(OC)cc12` belongs “Active”.
`CCc1c(C(=O)OC)c2ccccc2n2c(=O)c3ccccc3n12`: the outcome in the assay on PC-3 [1] was inactive.
For the compound `CC(C)[C@]12O[C@H]1[C@@H]1O[C@@]13[C@@]1(C)CCC4=C(COC4=O)[C@@H]1C[C@@H]1O[C@@]13C2=O` [TRIPTONIDE], the 50% inhibitory concentration (IC50) in the assay on PANC-1 stood at 47 nM; with PC-3 [3], 25 nM.
For the compound `CCOC(=O)c1c(C)n2c3ccccc3c(=O)n2c2ccc(Br)cc12`, the outcome in the assay with PC-3 [1] was Active.
As to `O=C1CCc2c1c1cccc(F)c1n1c(=O)c3ccccc3n21`, in the assay on PC-3 [1], the result was Active.
Turning to `CCOC(=O)c1c(C)n2c3ccccc3c(=O)n2c2c(OC)cccc12`, the concentration for half-maximal inhibition (IC50) with PANC-1 is 116 nM; in the assay on PC-3 [3], 216 nM. Also, in the assay on PC-3 [1], the outcome was Active.
For `CCOC(=O)c1c(-c2ccccc2)n2c3ccccc3c(=O)n2c2ccc(F)cc12`, the result with PC-3 [1] was Active.
Still for that read-out and setting: the entry for `CCOC(=O)c1c(-c2ccc(F)cc2)n2c3ccccc3c(=O)n2c2ccccc12` is “Active”; for `CCOC(=O)c1c(-c2ccccc2)n2c3ccc(OC)cc3c(=O)n2c2ccccc12` it is “Active”; for `CCOC(=O)c1c(C)n2c3ccccc3c(=O)n2c2cc(OC)cc(OC)c12` it is “Active”.
Consider `CCOC(=O)c1c(C)n2c3ccccc3c(=O)n2c2ccc(F)cc12`, for which, in the assay on PC-3 [1], the outcome was Active.
On the same count and under the same terms, the entry for `CCOC(=O)c1c(-c2ccccc2)n2c3ccccc3c(=O)n2c2ccc(I)cc12` is “Active”.
Consider `CCc1ccc2c(c1)c(C(=O)OC)c(C)n1c3ccccc3c(=O)n21`, for which the outcome with PC-3 [1] was Active.
With `CCOC(=O)c1c(-c2ccc(OC)cc2)n2c3ccccc3c(=O)n2c2ccccc12`, in the assay with PC-3 [1], the outcome was Active.
In the case of `O=C1CCCc2c1c1cc(F)ccc1n1c(=O)c3ccccc3n21`, the outcome in the assay on PC-3 [1] was Active.
On to `CCOC(=O)c1c(-c2ccc(C)cc2)n2c3ccccc3c(=O)n2c2ccccc12`, for which the outcome with PC-3 [1] was Active.
With `CCOC(=O)c1c(-c2ccccc2)n2c3ccccc3c(=O)n2c2ccc(OC)cc12`, the IC50 was 4230 nM in the assay on PANC-1 and 2020 nM with PC-3 [3]. The result in the assay on PC-3 [1] was Active.
For `COC(=O)c1c(C)n2c3ccccc3c(=O)n2c2c(F)cccc12`, in that order: 528 nM, 334 nM and “Active”.

The term IC50 denotes the concentration needed to halve the response being measured. Broadly, the inhibition is the percentage by which the read-out fell short of the control.
